“Also recorded” adds a separate entry of the source.
Tests used:
Format in all cases: in vitro ADME
CYP2A6 = target: T1, CYP2A6 (Homo sapiens, UniProt P11509); test: CYP2A6 coumarin 7-hydroxylase inhibition in pooled human liver microsomes (substrate cocktail, LC-MS/MS); settings: at 50 µM
T1 construct: pooled human liver microsomes (0.2 mg/mL); tissue Corning Life Sciences; host or cells: pooled human liver microsomes (150 donors)
T1 sequence (P11509 1-494): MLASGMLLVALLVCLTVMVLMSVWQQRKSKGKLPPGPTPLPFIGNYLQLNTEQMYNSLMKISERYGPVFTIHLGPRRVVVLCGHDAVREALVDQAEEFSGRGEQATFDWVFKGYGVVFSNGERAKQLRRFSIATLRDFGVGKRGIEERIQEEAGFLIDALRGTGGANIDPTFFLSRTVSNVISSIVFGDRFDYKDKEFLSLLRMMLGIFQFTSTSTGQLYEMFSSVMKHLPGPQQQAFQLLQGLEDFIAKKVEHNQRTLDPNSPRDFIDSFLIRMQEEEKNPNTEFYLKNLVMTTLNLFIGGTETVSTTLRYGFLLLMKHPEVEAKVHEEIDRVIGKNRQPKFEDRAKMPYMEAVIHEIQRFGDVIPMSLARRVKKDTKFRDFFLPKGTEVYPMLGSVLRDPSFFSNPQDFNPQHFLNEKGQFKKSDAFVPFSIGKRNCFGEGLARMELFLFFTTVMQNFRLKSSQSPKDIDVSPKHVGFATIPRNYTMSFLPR
Description: (§1) After a 3-min pre-incubation at 37 °C, the reactions were initiated by addition of NADPH and incubation proceeded for 15 min at 37 °C in a shaking water bath. […] The incubation mixtures were centrifuged (13,000× g, 4 min, 4 °C). All assays were performed in triplicate and mean values were used in calculations.
(§2) Each reaction was initiated by adding the seven-CYP probe substrate cocktail.
The metabolites formed from CYP substrates were quantified simultaneously by a LC-MS/MS method described previously. The ESI source settings in positive-ion mode for metabolite ionization were: capillary voltage, 4200 V; vaporizer temperature, 350 °C; capillary temperature, 330 °C; sheath gas pressure, 35 psi; and auxiliary gas pressure, 15 psi. […] Analytical data were processed using Xcalibur software (version 2.1, Thermo Scientific).
(§3) The apparent kinetic parameters for inhibitory potential (Ki and kinact values) and inhibition mode were estimated from the fitted curves using the Enzyme Kinetics program (ver. 1.1; Systat Software Inc., San Jose, CA, USA).

CYP3A4 = CYP3A4 (Homo sapiens, UniProt P08684); test: CYP3A4 midazolam 1′-hydroxylase inhibition in human liver microsomes; design: tissue Corning Life Sciences; host or cells: pooled human liver microsomes (150 donors)
Description: as §1, §2
The reactions were initiated by addition of NADPH at 37 °C and stopped after 10 min by placing the incubation tubes on ice and adding 100 μL of ice-cold methanol containing an internal standard (d9-1-hydroxybufuralol). The incubation mixtures were centrifuged (13,000× g, 4 min, 4 °C) and then 50 μL of the supernatant was diluted with 50 μL of water. Aliquots (5 μL) of the diluted supernatants were analyzed by LC-MS/MS.
The metabolites formed from CYP substrates were quantified simultaneously by a LC-MS/MS method described previously. The ESI source settings in positive-ion mode for metabolite ionization were: capillary voltage, 4200 V; vaporizer temperature, 350 °C; capillary temperature, 330 °C; sheath gas pressure, 35 psi; and auxiliary gas pressure, 15 psi. Quantification was performed by selected reaction monitoring (SRM) of the [M + H]^+ ion and the related product ion for each metabolite: acetaminophen, 152.1 > 110.3; N-desethylamodiaquine, 328.1 > 283.0; 7-hydroxycoumarin, 163.0 > 107.2; 4-hydroxybupropion, 256.1 > 238.0; 4′-hydroxydiclofenac, 312.0 > 231.1; 4′-hydroxy-mephenytoin; 235.1 > 150.1; 1′-hydroxybufuralol, 278.1 > 186.1; 1′-hydroxymidazolam, 341.9 > 324.0; ^13C2,^15N-acetaminophen 155.1 > 111.2; and d9-1′-hydroxybufuralol, 287.2 > 187.0. Analytical data were processed using Xcalibur software (version 2.1, Thermo Scientific).
as §3

UGT1A4 = target: T2, UGT1A4 (Homo sapiens, UniProt P22310); test: UGT1A4 trifluoperazine N-glucuronidation inhibition in human liver microsomes; settings: at 50 µM
T2 construct: pooled human liver microsomes (0.2 mg/mL), 5 mM UDPGA; tissue Corning Life Sciences; host or cells: pooled human liver microsomes (150 donors)
T2 sequence (P22310 29-534): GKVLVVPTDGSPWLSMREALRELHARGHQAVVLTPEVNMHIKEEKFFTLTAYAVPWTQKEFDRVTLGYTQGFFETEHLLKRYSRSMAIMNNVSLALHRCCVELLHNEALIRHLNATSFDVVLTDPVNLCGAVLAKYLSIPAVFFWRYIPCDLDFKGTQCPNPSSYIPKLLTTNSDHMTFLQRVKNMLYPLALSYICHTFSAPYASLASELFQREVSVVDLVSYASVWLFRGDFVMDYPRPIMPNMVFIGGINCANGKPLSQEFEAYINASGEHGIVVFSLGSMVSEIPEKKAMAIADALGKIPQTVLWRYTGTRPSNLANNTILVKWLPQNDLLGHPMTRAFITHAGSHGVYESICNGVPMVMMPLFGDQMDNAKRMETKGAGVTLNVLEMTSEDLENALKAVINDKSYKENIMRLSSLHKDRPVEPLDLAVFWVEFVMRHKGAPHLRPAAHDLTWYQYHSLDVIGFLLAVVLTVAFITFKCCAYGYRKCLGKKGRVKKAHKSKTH
Description: After 3 min of pre-incubation at 37 °C, the reactions were initiated by addition of UDPGA; incubation continued for 60 min at 37 °C in a shaking water bath. The reaction was stopped by placing the tubes on ice and adding 50 µL ice-cold acetonitrile containing internal standards (propofol glucuronide for chenodeoxycholic acid 24-acyl-β-glucuronide and mycophenolic acid glucuronide, and meloxicam for SN-38 glucuronide, trifluoperazine glucuronide, N-acetylserotonin β-D-glucuronide, and naloxone 3-β-D-glucuronide). The incubation mixtures were centrifuged (13,000× g, 4 min, 4 °C). All assays were performed in triplicate and average values were used in calculations.
The metabolites formed from the six UGT cocktail substrates were measured simultaneously using the LC-MS/MS method. The ESI source settings in both positive- and negative-ion modes for metabolite ionization were: capillary voltage, 4200 V; vaporizer temperature, 350 °C; capillary temperature, 330 °C; sheath gas pressure, 35 psi; and auxiliary gas pressure, 15 psi. […] Data were processed using Xcalibur software.
as §3

Sequence of CYP3A4 (P08684 whole entry): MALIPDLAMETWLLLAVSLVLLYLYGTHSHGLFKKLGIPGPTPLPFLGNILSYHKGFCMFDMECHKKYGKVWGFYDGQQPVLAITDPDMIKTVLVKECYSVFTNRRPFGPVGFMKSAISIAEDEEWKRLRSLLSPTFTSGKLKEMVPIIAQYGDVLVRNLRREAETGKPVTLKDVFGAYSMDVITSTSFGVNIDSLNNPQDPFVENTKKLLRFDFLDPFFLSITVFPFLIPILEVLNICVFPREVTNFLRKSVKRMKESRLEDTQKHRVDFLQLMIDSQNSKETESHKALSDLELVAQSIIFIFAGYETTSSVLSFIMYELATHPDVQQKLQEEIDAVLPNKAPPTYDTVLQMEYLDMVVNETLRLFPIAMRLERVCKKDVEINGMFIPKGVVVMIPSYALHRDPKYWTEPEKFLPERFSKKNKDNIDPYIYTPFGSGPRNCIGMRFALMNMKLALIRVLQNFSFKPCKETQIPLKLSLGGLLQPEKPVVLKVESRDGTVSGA

With `O=C(c1cccc2ccccc12)c1cn(CCCCCF)c2ccccc12` [AM-2201, 1-(5-fluoropentyl-1H-indol-3-yl)-(naphthalene-1-yl)methanone] the “inhibition of CYP2A6-mediated coumarin 7-hydroxylation” value (CYP2A6) was “negligibly inhibited”, the Ki (CYP3A4) was 4 µM and the “Inhibition Mode” value (CYP3A4; CYP3A4 midazolam 1′-hydroxylation) was “competitively inhibited; also recorded: competitive”. The IC50 (CYP3A4; IC50 (μM) No Preincubation, Midazolam 1′-hydroxylase, CYP3A4, human liver microsomes, 2.5 μM midazolam) was 6.9 µM, the IC50 (CYP3A4; IC50 (μM) With Preincubation, Midazolam 1′-hydroxylase, CYP3A4, 30 min preincubation with NADPH) was 3.8 µM and the IC50 (CYP3A4; IC50, CYP3A4-catalyzed midazolam 1′-hydroxylation, abstract) was 4 µM. For the same compound, the “inhibition of UGT1A4-catalyzed trifluoperazine N-glucuronidation” value (UGT1A4) was “negligibly inhibited”.
